{"source": "patent US20260256793A1", "about": "“ALTERATION OF F-BOX AND WD REPEAT DOMAIN CONTAINING 7 (FBXW7) GENE AS A PREDICTIVE BIOMARKER FOR TREATING CANCER WITH WEE1 INHIBITORS” (Zeno Management, Inc., priority 2023, published 2026)", "key": {"[1]": {"tested_on": "solid tumor patients (HGSOC, USC, endometrial, colorectal, peritoneum cancer), FBXW7-mutated or wild-type", "test": "Clinical outcome of Azenosertib monotherapy by FBXW7 mutational status (composite cohort of 356 patients)", "format": "in vivo, human", "conditions": "daily dose at least 300 mg; for Objective Response Rate (ORR): continuous or intermittent schedule, p<0.02, FIG. 9A; for target lesion size reduction (median): p<0.05, FIG. 9B", "experimental": "FIG. 9B is a waterfall plot of the tumor size change in FBXW7-mutated or wild-type human subjects.\nThe predictive value of FBXW7 was investigated in a composite cohort of 356 patients treated with a daily dose of at least 300 mg of Azenosertib monotherapy on a continuous dosing schedule or an intermittent dosing schedule (e.g., 5 days on/2 days off, 4 days on/3 days off) and profiled with high-throughput DNA sequencing. Specifically, this composite cohort of patients was treated with a daily dose of 300 mg, or 350 mg, or 400 mg, or 450 mg of Azenosertib monotherapy on a continuous dosing schedule (i.e., QD, 7 days a week without any intermission), a daily dose of 300 mg, or 350 mg, or 400 mg, or 450 mg, or of 500 mg of Azenosertib monotherapy on an intermittent 5 days on/2 days off or 4 days on/3 days off schedule). The source of mutational status was a combination of local (reports from clinical sites) or central testing from either tumor or cell-free DNA. The mutational status was determined as mutated when at least one of the reports reported a pathogenic mutation and unmutated (wild-type) when all reports covering the FBXW7 gene were negative. The cohort investigated consists of patients diagnosed with high-grade serous ovarian carcinoma or HGSOC (N=211), uterine serous carcinoma or USC (N=57) or other solid tumor cancers including endometrial cancer, colorectal cancer, and peritoneum cancer […]. The patients mutated for FBXW7 (N=17-including […], 7 USC, 2 endometrial and 3 colorectal), were more likely to respond to Azenosertib monotherapy (Objective Response Rate or ORR=41% (7/17) for FBXW7-mutated patients vs. 16% (53/339) for FBXW7-wild-type patients; p<0.02—FIG. 9A [BOR=Best Overall Response; CR=Complete Response; PR—Partial Response; uPR=Unconfirmed Partial Response; SD=Stable Disease; PD=Progressive Disease)."}, "[2]": {"tested_on": "Parental DLD-1 colorectal cancer cells", "test": "Western blot (Jess) of WEE1, pCDK1, replication stress, DNA damage and apoptosis markers after Azenosertib treatment, parental cells", "format": "cell-based", "experimental": "(§1) FIG. 8 is a Western Blot image showing levels of FBXW7, WEE1 kinase, Cyclin E1, and other replication stress, DNA damage, apoptosis markers in DLD-1 parental and DLD-1 FBXW7-knockout colorectal cancer cells treated with DMSO (negative control) and 250 nM, 1 μM, and 10 µM of Azenosertib for 8 hours, 24 hours, or 48 hours.\n(§2) Parental DLD-1 colorectal cancer cells or FBXW7 knockout (FBXW7-KO) DLD-1 cells (Creative Biogene, Cat No. CSC-RT0018, Lot No. 081723ZYX) were cultured in RPMI 1640 medium (ATCC modification) (Giboco) supplemented with 10% FBS (Gibco) and 1% penicillin-streptomycin (Gibco). Cells were maintained at 37° C. in an atmosphere containing 5% CO2.\n(§3) The cultured cells were seeded at optimal density in 6-well plates, allowed to adhere overnight, and then treated with Azenosertib (250 nM, 1 μM, or 10 μM), with DMSO treatment as a negative control. After 8, 24, and 48 hours of drug exposure, cells were harvested, rinsed with PBS, lysed with cold RIPA buffer (Sigma) containing protease and phosphatase inhibitors for 15 minutes, and centrifuged at 4° C., 15,000 rpm for 15 minutes. Protein concentrations were measured using the Pierce BCA Protein Assay kit (Thermo Fisher). Jess™ plates were loaded and run according to the manufacturer's instructions (Bio-Techne). Primary antibodies anti-FBXW7 and anti-Cyclin E1 were purchased from Abcam, anti-phospho-H3, anti-Vinculin, anti-γH2AX, anti-phospho-CDK1, anti-phsopho-Chk1, anti-cleaved caspase 3, anti-Wee1, and anti-CDK1 were purchased from Cell Signaling Technology."}, "[3]": {"tested_on": "FBXW7 knockout (FBXW7-KO) DLD-1 cells", "test": "Western blot (Jess) of WEE1, pCDK1, replication stress, DNA damage and apoptosis markers after Azenosertib treatment, FBXW7 knockout cells", "format": "cell-based", "experimental": "as §1, §2, §3"}, "[4]": {"conditions": "250 nM, 1 μM, 10 μM, 8, 24, 48 hours, vs DMSO, FIG. 8"}, "[5]": {"conditions": "FBXW7-KO DLD-1, 250 nM, 1 μM, 10 μM, 8, 24, 48 hours, vs DMSO, FIG. 8"}, "[6]": {"conditions": "FBXW7-KO DLD-1, 10 μM, more significant DNA damage compared to parental cell line"}}}
{"smiles": "C=CCn1c(=O)c2cnc(Nc3ccc(N4CCN(C)CC4)cc3)nc2n1-c1ccc2c(n1)[C@@](O)(CC)CC2", "note": "[Azenosertib]", "values": [{"measurement": "Objective Response Rate (ORR)", "setting": "[1]; FBXW7-mutated patients (7/17)", "result": 41, "unit": "%"}, {"measurement": "target lesion size reduction (median)", "setting": "[1]; FBXW7-mutated patients", "result": "−41", "unit": "%"}, {"measurement": "Objective Response Rate (ORR)", "setting": "[1]; FBXW7-wild-type patients (53/339)", "result": 16, "unit": "%"}, {"measurement": "target lesion size reduction (median)", "setting": "[1]; second-named group, FBXW7-wild-type patients", "result": "−8", "unit": "%"}, {"measurement": "WEE1 levels", "setting": "[2]; [4]", "result": "dose-dependent decrease"}, {"measurement": "phospho-CDK1 (pCDK1) levels", "setting": "[2]; [4]", "result": "dose-dependent decrease"}, {"measurement": "pCDK1 level", "setting": "[2]; 10 μM, 48 hours", "result": "decreasing significantly"}, {"measurement": "WEE1 levels", "setting": "[3]; [5]", "result": "dose-dependent decrease"}, {"measurement": "phospho-CDK1 (pCDK1) levels", "setting": "[3]; [5]", "result": "dose-dependent decrease"}, {"measurement": "pCDK1 level", "setting": "[3]; FBXW7-KO DLD-1, 10 μM, 48 hours", "result": "decreasing significantly"}, {"measurement": "gamma-H2AX (γH2AX) levels (DNA damage)", "setting": "[3]; [6]", "result": "increase"}, {"measurement": "phospho-Chk1 (pChk1) levels (DNA damage)", "setting": "[3]; [6]", "result": "increase"}, {"measurement": "cleaved caspase 3 levels (apoptosis)", "setting": "[3]; FBXW7-KO DLD-1, e.g. 10 µM at 24 hours and 48 hours, compared to parental cell line", "result": "increase"}, {"measurement": "sensitivity to treatment with Azenosertib", "setting": "[3]; FBXW7-KO cells compared to the parental cell line", "result": "more sensitive"}]}
